In one experiment the target is USP7 MATH/TRAF (Homo sapiens, UniProt Q93009). In words: FP displacement assay, USP7 MATH/TRAF. The note with it: read-out: KD-values [µM] + SEM. Format: binding.
A further experiment has as its target GABARAPL1 ATG8 (Homo sapiens, UniProt Q9H0R8). In words: FP displacement assay, GABARAPL1 ATG8. It counts as binding. The note with it: read-out: KD-values [µM] + SEM.
For experiment [1], the target named is T1, MAP1LC3B ATG8 (Homo sapiens, UniProt Q9GZQ8). In words: FP displacement assay, MAP1LC3B ATG8. Format: binding. As to conditions: read-out: KD-values [µM] + SEM.
Protocol: (§4) FP experiments were performed, as previously described (Kliche et al, [2021], [2023]), on an iD5 plate reader (Molecular devices) using black half-area non-binding 96-well plates (Corning). In order to calculate the FP signal in millipolarisation (mP), the FITC-labelled peptides were excited at 485 nm and the emitted light was measured at 535 nm in two different angles. For saturation experiments, a dilution series of the respective protein domains was generated (25 µL) and 10 nM fluorescein isothiocyanate (FITC)-labelled peptide (diluted in 50 mM sodium phosphate buffer pH 7.4, 0.05% Tween) were added in an end volume of 50 µL. A control experiment titrating GST was performed for the binding of the NEDD4 WW2 domain, since the GST-tagged construct was used for affinity measurements. For fitting the data, the buffer-corrected reduced values were plotted in GraphPad PRISM against the respective protein concentration and the KD-values were obtained by fitting against the quadratic equation (Gianni et al, [2005]).
(§5) The buffer-corrected reduced values were subsequently plotted against the logarithmic unlabelled peptide concentration to derive the IC50 values by using the sigmoidal dose-response (x is logarithmic) fit in GraphPad PRISM and calculate the KD values as described previously (Nikolovska-Coleska et al, [2004]).
Experiment [2] deals with T2, NEDD4 WW2 (Homo sapiens, UniProt P46934). Put plainly: FP displacement assay, NEDD4 WW2. It counts as binding. The note with it: read-out: KD-values [µM] + SEM.
Protocol: For saturation experiments, a dilution series of the respective protein domains was generated (25 µL) and 10 nM fluorescein isothiocyanate (FITC)-labelled peptide (diluted in 50 mM sodium phosphate buffer pH 7.4, 0.05% Tween) were added in an end volume of 50 µL. A control experiment titrating GST was performed for the binding of the NEDD4 WW2 domain, since the GST-tagged construct was used for affinity measurements.
If the raw values indicated a FITC-contamination of the unlabelled peptide, the data was excluded and a new batch of peptide was ordered for remeasuring the affinity.
Another experiment addresses KPNA4 ARM major (Homo sapiens, UniProt O00629). In words: FP displacement assay, KPNA4 ARM major pocket. Format: binding.
A further experiment deals with KPNA4 ARM minor (Homo sapiens, UniProt O00629). In words: FP displacement assay, KPNA4 ARM minor pocket. It counts as binding.
In the next experiment the test system is KPNA4 ARM. Put plainly: GenVar_HD2 ProP-PD phage selection, KPNA4 ARM. It counts as binding, human. As to conditions: bait KPNA4 ARM; from NGS counts of overlapping wild-type/mutant library peptide pairs; positive = mutation enhances, negative = disrupts binding.
The target of experiment [3] is T1, MAP1LC3B ATG8. Put plainly: Isothermal titration calorimetry, MAP1LC3B ATG8. Format: binding. On the set-up: S∆T / ∆H: unit not given here. The note with it: ITC; for N (stoichiometry of the interaction): N value from the fit or set if necessary. (In ITC the heat of successive injections is recorded.)
Experiment [4] deals with T1, MAP1LC3B ATG8. Put plainly: GenVar_HD2 ProP-PD phage selection, MAP1LC3B ATG8. As to conditions: bait MAP1LC3B ATG8; from NGS counts of overlapping wild-type/mutant library peptide pairs; positive = mutation enhances, negative = disrupts binding. As for the experimental part: (§1) Phage display screens were performed according to previous reports (Benz et al, [2022]; Ali et al, [2020]) and for four consecutive selection rounds with five to six replicates per bait protein domain against the […] library.
(§2) On the first day, both bait (15 µg in 100 µL PBS) and control protein domains (GST and MBP; 10 µg in 100 µL PBS) were immobilised on a 96-well MaxiSorb plate (Nunc) overnight in the cold room while shaking. Additionally, a 10 mL culture of Omnimax E. coli bacteria supplemented with 10 µg/mL tetracycline was incubated overnight at 37 °C at 200 rpm.
(§3) First, protein solutions were removed from both control and bait protein domain plates and the wells were blocked with 0.5% BSA in PBS (200 µL/well) for 1 h in the cold room while shaking. After that, three Omnimax E. coli cultures were started supplemented with either 30 µg/mL kanamycin, 100 µg/mL carbenicillin and 10 µg/mL tetracycline and incubated at 37 °C and 200 rpm. The two first cultures served as a means to check for helper phage contamination (kanamycin) and phages with library phagemid contamination (carbenicillin) of the culture used for elution of the phages during selections. The tetracycline Omnimax E. coli culture was grown until OD at 600 nm reached 0.6–0.8.
Naïve phage libraries were precipitated (10 µL/well of bait protein domain) by diluting the library tenfold with PBS, adding one-fourth of 20% […] and 400 mM NaCl and incubating the mixture for 15 min on ice. Subsequently, phages were spun down for 15 min at 13,000 × g and resuspended in 0.5% BSA and 0.05% Tween-20 in PBS (100 µL/well). Control domain plates were washed four times with 200 µL 0.05% Tween-20 in PBS, 100 µL of the naïve phage library (10^11 phages/mL) were added to every well and the plates incubated for 1 h in the cold room while shaking. Next, protein bait domain plates were washed four times with 0.05% Tween-20 in PBS and the phage solution from the control protein plate was transferred to the respective wells on the protein bait domain plate. […]

Experiment [5] deals with T3, CASK kinase domain (Homo sapiens, UniProt O14936).
T3 sequence (O14936 1-340): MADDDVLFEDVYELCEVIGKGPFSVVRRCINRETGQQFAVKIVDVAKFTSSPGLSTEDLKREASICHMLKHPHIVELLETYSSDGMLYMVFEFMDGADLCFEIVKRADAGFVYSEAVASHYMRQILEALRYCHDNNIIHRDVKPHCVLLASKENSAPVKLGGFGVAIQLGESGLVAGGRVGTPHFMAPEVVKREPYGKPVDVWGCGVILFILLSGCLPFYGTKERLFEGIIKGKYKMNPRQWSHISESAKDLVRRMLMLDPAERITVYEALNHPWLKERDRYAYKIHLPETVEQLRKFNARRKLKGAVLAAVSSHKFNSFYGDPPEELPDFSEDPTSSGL
In words: FP displacement assay, CASK kinase domain. The note with it: FP displacement of FITC-PER2 (10 nM) complexed with domain (1-2x KD), 50 mM sodium phosphate pH 7.4, 100 mM NaCl, KD from IC50, technical triplets, n.b. = not binding within concentration range used.
Protocol: as §4, §5

Another experiment has as its target G3BP1 NTF2 (Homo sapiens, UniProt Q13283). Put plainly: GenVar_HD2 ProP-PD phage selection, G3BP1 NTF2. The note with it: bait G3BP1 NTF2; from NGS counts of overlapping wild-type/mutant library peptide pairs; positive = mutation enhances, negative = disrupts binding. As for the experimental part: as §1, §2
as §3, with “0.6–0.8. […]” for “0.6–0.8.”

The target in experiment [6] is T2, NEDD4 WW2. Put plainly: GenVar_HD2 ProP-PD phage selection, NEDD4 WW2. The note with it: bait NEDD4 WW2; from NGS counts of overlapping wild-type/mutant library peptide pairs; positive = mutation enhances, negative = disrupts binding. On the procedure:
as §1, §2
as §3, with “0.6–0.8. […]” for “0.6–0.8.”

The target of experiment [7] is T3, CASK kinase domain. Put plainly: GenVar_HD2 ProP-PD phage selection, CASK kinase domain. The note with it: bait CASK kinase domain; from NGS counts of overlapping wild-type/mutant library peptide pairs; positive = mutation enhances, negative = disrupts binding. On the procedure: as §1, §2
as §3, with “0.6–0.8. […]” for “0.6–0.8.”

T2 sequence (P46934 765-803 limits assumed): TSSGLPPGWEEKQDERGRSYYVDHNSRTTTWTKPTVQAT
Chain of G3BP1 NTF2 (Q13283 1-139): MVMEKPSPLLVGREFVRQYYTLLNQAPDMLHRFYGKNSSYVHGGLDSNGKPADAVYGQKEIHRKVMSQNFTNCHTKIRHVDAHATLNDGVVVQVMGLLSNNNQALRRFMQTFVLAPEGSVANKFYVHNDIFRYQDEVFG
Chain of KPNA4 ARM minor (O00629 68-487): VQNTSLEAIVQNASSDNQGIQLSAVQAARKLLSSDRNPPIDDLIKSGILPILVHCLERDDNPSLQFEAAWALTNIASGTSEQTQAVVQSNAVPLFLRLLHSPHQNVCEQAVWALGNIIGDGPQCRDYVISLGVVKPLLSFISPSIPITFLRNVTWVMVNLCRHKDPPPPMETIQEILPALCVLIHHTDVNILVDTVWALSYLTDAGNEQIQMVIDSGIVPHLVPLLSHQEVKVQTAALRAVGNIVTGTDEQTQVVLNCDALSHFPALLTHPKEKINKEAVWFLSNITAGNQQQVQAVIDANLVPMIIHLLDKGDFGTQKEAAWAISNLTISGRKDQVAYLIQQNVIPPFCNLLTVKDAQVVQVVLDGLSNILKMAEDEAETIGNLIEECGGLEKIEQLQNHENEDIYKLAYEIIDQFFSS
Chain of KPNA4 ARM major (O00629 68-487): as above
Chain of USP7 MATH/TRAF (Q93009 53-206): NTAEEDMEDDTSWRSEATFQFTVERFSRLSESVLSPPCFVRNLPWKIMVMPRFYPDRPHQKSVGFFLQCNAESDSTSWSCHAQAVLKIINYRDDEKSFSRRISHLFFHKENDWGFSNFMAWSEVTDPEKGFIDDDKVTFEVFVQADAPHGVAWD
Chain of GABARAPL1 ATG8 (Q9H0R8 2-115): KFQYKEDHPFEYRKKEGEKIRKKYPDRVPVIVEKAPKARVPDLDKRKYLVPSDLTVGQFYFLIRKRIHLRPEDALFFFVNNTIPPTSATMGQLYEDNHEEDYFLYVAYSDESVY
Protocol for GABARAPL1 ATG8: (§6) FP experiments were performed, as previously described (Kliche et al, [2021], [2023]), on an iD5 plate reader (Molecular devices) using black half-area non-binding 96-well plates (Corning). In order to calculate the FP signal in millipolarisation (mP), the FITC-labelled peptides were excited at 485 nm and the emitted light was measured at 535 nm in two different angles. For saturation experiments, a dilution series of the respective protein domains was generated (25 µL) and 10 nM fluorescein isothiocyanate (FITC)-labelled peptide (diluted in 50 mM sodium phosphate buffer pH 7.4, 0.05% Tween) were added in an end volume of 50 µL. […] For fitting the data, the buffer-corrected reduced values were plotted in GraphPad PRISM against the respective protein concentration and the KD-values were obtained by fitting against the quadratic equation (Gianni et al, [2005]).
as §5
Protocol for KPNA4 ARM major: as §4, §5
Protocol for KPNA4 ARM minor: as §4, §5
Protocol for USP7 MATH/TRAF: as §6, §5

For orientation: Kd means the free concentration of one partner at which half of the binding sites on the other are occupied at equilibrium, for simple one-to-one binding. With “Ac-YISSSSTSTMPNSSQSS-NH2 [CHK2_38-53 wild-type]”, the Kd at USP7 MATH/TRAF came out at 3.1 ± 0.2 µM.

With “Ac-DKDEWQSLDQNEDAFE-NH2 [BUB1_486-501 wild-type]”, the Kd at GABARAPL1 ATG8 was determined as 5.5 ± 0.7 µM; on MAP1LC3B ATG8 [1], 7 ± 1 µM.

Regarding “Ac-PIPGTPPPNYDSLRLQ-NH2 [SCNN1B_611-626 wild-type]”, on NEDD4 WW2 [2], the dissociation constant Kd was 39 ± 3 µM.

“Ac-YLLDGPPNPERAKLSS-NH2 [CREBBP_5-19 K13E]”: the Kd on KPNA4 ARM major (read-out: KD-values [µM] + SEM) turned out to be 860 ± 20 µM. Moreover, the “KD-values [µM] + SEM” value on KPNA4 ARM minor (minor pocket, FP displacement of FITC-NCOR2 (10 nM) complexed with domain (1-2x KD), 50 mM sodium phosphate pH 7.4, KD from IC50, technical triplets, ± SEM, n.b. = not binding within concentration range used) is on record as “n.b”. Besides, the Mutation enrichment score with KPNA4 ARM was −6.

For the molecule “Ac-EDEVYEILRDTSEEDS-NH2 [BRCA2_292-307 T298I/V299L/V300R]”, the dissociation constant (Kd) at MAP1LC3B ATG8 [1] was 0.52 ± 0.01 µM. In addition, on MAP1LC3B ATG8 [3] (replicate 1), the Ka is given as 388000, the “S∆T” value was 3.04, the “∆H” value was -6718 and the “N (stoichiometry of the interaction)” value is recorded as 0.744. In addition, at MAP1LC3B ATG8 [3] (replicate 2), the Ka worked out at 524000, the “S∆T” value was 3.49, the “∆H” value was -6766 and the “N (stoichiometry of the interaction)” value came out at 0.685. Besides, at MAP1LC3B ATG8 [3] (replicate 3), the Ka was 3280000, the “S∆T” value is recorded as 8.75, the “∆H” value is given as -6280 and the “N (stoichiometry of the interaction)” value is 0.649. This molecule also yielded an equilibrium dissociation constant (Kd) on MAP1LC3B ATG8 [3] (KD (isothermal titration calorimetry), 50 mM sodium phosphate pH 7.4, 1 mM DTT, peptide titrated in tenfold excess, 16 injections) of 2 µM. Moreover, at MAP1LC3B ATG8 [4], the Mutation enrichment score is on record as 15.

Consider “H3COC-YSGDTSP(R/W)HLSNVSST-NH2 [MAPT_717-731 wild-type, wild-type MAPT peptide, residues 717-731]”, for which the “KD-values [µM] + SEM” value on CASK kinase domain [5] was “no binding and n.b”.

As to “Ac-QQSYLDFGIHSGATTT-NH2 [CTNNB1_27-42 S33F]”, the Mutation enrichment score on G3BP1 NTF2 is given as 9.

With “Ac-PIPGTRPPNYDSLRLQ-NH2 [SCNN1B_611-626 P616R]”, on NEDD4 WW2 [2], the Kd stood at 80 ± 7 µM. The Mutation enrichment score on NEDD4 WW2 [6] is −12.

With “Ac-PIPGTPPRNYDSLRLQ-NH2 [SCNN1B_611-626 P618R]”, the Kd at NEDD4 WW2 [2] is 603 ± 73 µM. For the same molecule, the Mutation enrichment score on NEDD4 WW2 [6] is given as −16.

As to `CSCC[C@H](NC(C)=O)C(=O)N[C@@H](CO)C(=O)N[C@@H](CC(=O)O)C(=O)N[C@@H](CC(C)C)C(=O)N[C@@H](Cc1c[nH]c2ccccc12)C(=O)N[C@H](C(=O)N1CCC[C@H]1C(=O)N[C@@H](CC(N)=O)C(=O)N[C@@H](CO)C(=O)N[C@@H](C)C(=O)N[C@@H](CO)C(=O)NCC(=O)N[C@@H](CCC(N)=O)C(=O)N[C@@H](CC(=O)O)C(=O)N1CCC[C@H]1C(=O)NCC(N)=O)C(C)C` [FANCA_1-16 S4L], at CASK kinase domain [7], the Mutation enrichment score is on record as 6.

Regarding “Ac-YSGDTSPWHLSNVSST-NH2 [MAPT_717-731 R723W]”, at CASK kinase domain [7], the Mutation enrichment score amounted to 12.

Turning to `CC(=O)N[C@@H](CCC(=O)O)C(=O)N[C@@H](Cc1ccccc1)C(=O)N1CCC[C@H]1C(=O)N[C@H](C(=O)N1CCC[C@H]1C(=O)N[C@@H](Cc1ccccc1)C(=O)N[C@@H](Cc1ccccc1)C(=O)NCC(=O)N[C@@H](CO)C(=O)N[C@@H](CC(N)=O)C(=O)N[C@@H](CC(=O)O)C(=O)N[C@@H](Cc1ccc(O)cc1)C(=O)N[C@@H](CC(C)C)C(=O)N[C@@H](Cc1c[nH]c2ccccc12)C(=O)N[C@H](C(=O)N[C@@H](Cc1c[nH]cn1)C(N)=O)[C@@H](C)O)C(C)C` [NSD1_1793-1808 L1797P], the Mutation enrichment score at G3BP1 NTF2 is −7.4.

In the case of “H3COC-MSD(S/L)WVPNSASGQDPG-NH2 [FANCA_1-16 wild-type, wild-type FANCA peptide, residues 1-16]”, the “KD-values [µM] + SEM” value on CASK kinase domain [5] was “n.b”.

Consider “Ac-PELWVAHRTAQHLSAT-NH2 [ZNF526_152-167 L160T]”, for which the “KD-values [µM] + SEM” value at KPNA4 ARM major (major pocket, FP displacement of FITC-MYC (10 nM) complexed with domain (1-2x KD), 50 mM sodium phosphate pH 7.4, KD from IC50, ± SEM, n.b. = not binding within concentration range used) was “n.b”. For the same molecule, on KPNA4 ARM minor (read-out: KD-values [µM] + SEM), the Kd came out at 395 ± 10 µM. For the same molecule, the Mutation enrichment score in the experiment on KPNA4 ARM is −6.4.

For the origin of these results see article PMC11369174, “Proteome-scale characterisation of motif-based interactome rewiring by disease mutations” (Molecular Systems Biology, 2024).
